Test results reported in patent publication US9200171B2, “AZO compound and ink containing the compound” (MITSUBISHI CHEMICAL CORPORATION, priority 2011, dated 2015).
In brackets after ≈: the same amount, converted by molar mass.

Legend:
[1] = Solubility C (saturated concentration at 5° C.) of compound in low-polarity solvent and product εC; type: physicochemical; conditions: for ε · C: C at 5° C.; for solubility at 24 h: organic solvent or mixture, thermodynamic from solid; for solubility at 24 h / Solubility: at 5° C.
Description: The solubility C of each compound in each solvent was measured as follows.
Each compound was added to each solvent until a dissolution residue came to remain, and the mixture was subjected to an ultrasonic treatment for 30 minutes at 30° C. After the mixture was allowed to stand at 5° C. for 24 hours, centrifugal filtration was performed through a filter of 0.1 μm using a microcentrifuge (centrifugal force 5200×g). The resulting saturated solution was diluted to an appropriate concentration, and measurement of absorption spectra was performed on Hitachi spectrophotometer U-4100 using a quartz cell having an optical path length for measurement of 10 mm. The concentration of each compound was determined from a relationship between the absorbance at the absorption-maximum wavelength λmax (nm) and the molar extinction coefficient ε (L·mol^−1·cm^−1) previously measured, and the solubility C (mol·L^−1) was calculated. Moreover, the value of the product of the molar extinction coefficient ε (L·mol^−1·cm^−1) and the solubility C (mol·L^−1), εC, was determined.
Sudan Black B (manufactured by Tokyo Chemical Industry Co., Ltd.) that is a commercially available oil-soluble black dye was added to n-decane (relative permittivity 2.0, solubility in water 1 mg/L or less) until a dissolution residue came to remain, and the mixture was subjected to an ultrasonic treatment for 30 minutes at 30° C. After the mixture was allowed to stand at 5° C. for 24 hours, centrifugal filtration was performed through a filter of 0.1 μm using a microcentrifuge (centrifugal force 5200×g). The resulting saturated n-decane solution was diluted to an appropriate concentration.

[2] = Absorption-maximum wavelength λmax, molar extinction coefficient ε and solution colour in each solvent; type: physicochemical; conditions: for ε: at absorption-maximum wavelength
Description: Each of the compounds 1 to 15 and the comparative example compounds 1 and 2 (1 mg each) was dissolved in each solvent (100 ml) and measurement of absorption spectra was performed on Hitachi spectrophotometer U-4100 using a quartz cell having an optical path length for measurement of 10 mm. From the resulting spectra, absorption-maximum wavelength λmax (nm) and molar extinction coefficient ε ([…]) were determined.

Row | SMILES | ε · C ([1]; Isopar M) | ε · C ([1]; n-decane) | solubility at 24 h ([1]; in Isopar M) | solubility at 24 h ([1]; in n-decane) | solubility at 24 h ([1]; in tetradecane) | ε · C ([1]; tetradecane) | Absorption-maximum wavelength ([2]; Isopar M) | Color tone ([2]; Isopar M solution) | ε ([2]; Isopar M) | Absorption-maximum wavelength ([2]; n-decane) | Color tone ([2]; n-decane solution) | ε ([2]; n-decane) | Absorption-maximum wavelength ([2]; tetradecane) | Color tone ([2]; tetradecane solution) | ε ([2]; tetradecane) | Solubility ([1]; in Isopar M) | Solubility ([1]; in n-decane) | Solubility ([1]; in tetradecane)
1 | C=CCn1c(N=Nc2ccc(N(CCC)CCC)cc2NC(C)=O)nc(C#N)c1C#N [Comparative example compound 2, reference compound] | ≤ 10 or cm^−1 | ≤ 10 or cm^−1 | ≤ 0.01 mM | ≤ 0.01 mM | ≤ 0.01 mM | ≤ 10 or cm^−1 | 514 nm | red | 39000 L/mol/cm | 512 nm | red | 34000 L/mol/cm | 514 nm | red | 39000 L/mol/cm |  |  | 
2 | CCCCC(CC)CN(CC(CC)CCCC)c1ccc(/N=N/c2sc(N=Nc3ccc(C(=O)OCC(C)C)cc3)cc2C#N)c(C(C)C)c1 (centres unmarked) [Compound 4] |  | 1800 cm⁻¹ |  | 27 mM (≈ 18.9 mg/mL) | 20 mM (≈ 14 mg/mL) | 1300 cm⁻¹ |  |  |  | 638 nm | blue | 66000 L/mol/cm | 640 nm | blue | 64000 L/mol/cm |  |  | 
3 | CCCCC(CC)COC(=O)c1ccc(N=Nc2cc(C#N)c(N=Nc3ccc(N(CC(CC)CCCC)CC(CC)CCCC)cc3C)s2)cc1 (centres unmarked) [Compound 6] | 10400 cm⁻¹ | 7000 cm⁻¹ |  |  |  | 9300 cm⁻¹ | 634 nm | blue | 65000 L/mol/cm | 633 nm | blue | 66000 L/mol/cm | 635 nm | blue | 65000 L/mol/cm | 160 mM (≈ 116 mg/mL) | 110 mM (≈ 80 mg/mL) | 140 mM (≈ 102 mg/mL)
4 | CCCCC(CC)CN(CC(CC)CCCC)c1ccc(N=Nc2sc(C=C(C#N)C#N)c(Cl)c2C#N)c(NC(=O)C(CC)CCCC)c1 (centres unmarked) [Compound 11] |  | 5300 cm⁻¹ |  |  |  |  |  |  |  | 642 nm | blue | 60000 L/mol/cm |  |  |  |  | 89 mM (≈ 62.7 mg/mL) | 
5 | CCCCC(CC)CN(CC(CC)CCCC)c1cc(NC(C)=O)c(N=Nc2sc(C(=O)OCC)c(C)c2C(=O)OCC)cc1OC (centres unmarked) [Compound 12] |  | 12000 cm⁻¹ |  |  |  |  |  |  |  | 582 nm | blue | 46000 L/mol/cm |  |  |  |  | 250 mM (≈ 168 mg/mL) | 
6 | CCCCC(CC)COC(=O)C(C#N)=Cc1sc(N=Nc2cc(OC)c(N(CC(CC)CCCC)CC(CC)CCCC)cc2NC(C)=O)nc1Cl (centres unmarked) [Compound 10] | 5500 cm⁻¹ | 5700 cm⁻¹ |  |  |  | 2000 cm⁻¹ | 657 nm | blue | 54000 L/mol/cm | 656 nm | blue | 61000 L/mol/cm | 658 nm | blue | 55000 L/mol/cm | 64 mM (≈ 48.5 mg/mL) | 93 mM (≈ 70.4 mg/mL) | 36 mM (≈ 27.3 mg/mL)
